Reference: patent US20090304818A1, “METHOD OF TREATMENT” (priority 2005, published 2009)

Test system: sepsis in conscious sheep
Test: Ang II infusion in E. coli-induced sepsis in conscious sheep (FIG. 1)
Format: in vivo
Details: sepsis + Ang II infusion period, four conscious sheep
Procedure: Seven female Merino ewes weighing between 34.2 kg and 47.3 kg were procured for chronic instrumentation. The sheep were held and studied in metabolic cages, with free access to food and water. The animals underwent two separate operative procedures. For all procedures, anaesthesia was induced with sodium thiopentone (15 mg/kg) for endotracheal tube placement (cuff size 10). Maintenance anaesthesia was by means of oxygen/air/isoflurane (1 to 2%). Fractional inspired oxygen was altered to maintain PaO2 at approximately 100 mm Hg, and ventilation was controlled to maintain PaCO2 at approximately 40 mm Hg.
First, a left-sided thoracotomy was performed. The pericardium was opened, and a transit time flow probe (20 mm, Transonics Systems, Ithaca, N.Y.) was placed around the pulmonary artery to measure cardiac output. After two weeks recovery, a left-sided flank incision was made and a retroperitoneal dissection was performed to expose the left renal artery. […]
Analog signals of mean arterial pressure (MAP), central venous pressure (CVP), cardiac output (CO), and renal blood flow (RBF) were collected using a PC using a customized data acquisition system (Labview National Instruments). Data were recorded at 100 Hz for 10 s at every minute throughout the experimental protocol. Total peripheral conductance (TPC) (cardiac output/mean arterial pressure) and renal vascular conductance (RVC) (renal blood flow/mean arterial pressure) were calculated.
During the experimental periods MAP, CVP, CO, RBF and heart rate were measured continuously. Following a 12-hour baseline period, sheep were monitored for a 48 hour control period. After 7 days, sheep were monitored for a 2nd baseline period, followed by induction of sepsis by intravenous administration of a bolus of live E. coli (3.9×10^9 colony forming units in 15 mL saline), followed by a continuous infusion ([…] at 5 mL/h) for 48 h. […]
In both treatments, after the 12-hour baseline period, normal saline (1 mL/kg/h) was infused to avoid hypovolemia. Urinary output was measured and urine sampled every 90 minutes. […]

angiotensin II (DRVYIHPF; Angiotensin-2; UniProt P01019 25-32, looked up) [Ang II, vasoconstricting agent with preferential action on the efferent arteriole of the glomerulus; acts at the AT-1 receptor]
return these variables to normal: renal blood flow (increased in sepsis) | mean arterial pressure (reduced in sepsis) | urine output (reduced in sepsis)
